Assay results published in patent US20260124192A1, “COMPOUNDS, COMPOSITIONS, AND METHODS OF TREATING RNA VIRAL INFECTIONS” (priority 2024, published 2026).
Like-named read-outs stand apart in the source and are kept apart here.

Tests used:
SARS-CoV-2 USA-WA1/2020 [1] = assay: SARS-CoV-2 CPE assay, Vero E6 (Method 2); assay type: cell-based; conditions: Severe acute respiratory syndrome coronavirus 2, Vero C1008, 2% FBS
SARS-CoV-2 USA-WA1/2020 [2] = assay: SARS-CoV-2 CPE assay, A549-ACE2 (Method 2); assay type: cell-based; conditions: 2% FBS
SARS-CoV-2 USA-WA1/2020 [3] = assay: SARS-CoV-2 viral yield reduction (VYR) assay, Caco-2 (Method 2); assay type: cell-based; conditions: Severe acute respiratory syndrome coronavirus 2, 2% FBS
Method: After sufficient virus replication occurs (3 days for SARS-CoV-2), a sample of supernatant is taken from each infected well (three replicate wells are pooled) and tested immediately or held frozen at −80° C. for later virus titer determination. After maximum CPE is observed, the viable plates are stained with neutral red dye. The incorporated dye content is quantified as described above to generate the EC50 and CC50 values.
Serial 1/10 dilutions of virus are made and plated into 4 replicate wells containing fresh cell monolayers of Vero E6 cells. Plates are then incubated, and cells are scored for presence or absence of virus after distinct CPE is observed, and the CCID50 calculated using the Reed-Muench method (24). […] Dividing EC90 by the CC50 gives the SI value for this test.

[4] = tested on: SARS-CoV-2 Delta (B.1.617.2); assay: SARS-CoV-2 CPE assay, Vero 76 (Method 2); assay type: cell-based; conditions: Severe acute respiratory syndrome coronavirus 2, 2% FBS
[5] = tested on: SARS-CoV-2 Omicron (B.1.1.529); assay: SARS-CoV-2 IF assay, HeLa-ACE2 (Method 1); assay type: cell-based; conditions: Severe acute respiratory syndrome coronavirus 2, HeLa-ACE2, SARS-CoV-2 Omicron (B.1.1.529), 2% FBS
CoV229E = assay: Anti-Coronavirus 229E cytoprotection (CPE) assay, MRC-5 (Method 3); assay type: cell-based, human Coronavirus 229E; conditions: Human coronavirus 229E, MRC5, […], read-out: CoV229E - EC50 (μM)
Norwalk Virus = assay: Norwalk virus CPE assay, HG23 (Method 6); assay type: cell-based; conditions: Norovirus Norwalk Virus, 2% FBS, @ 5 μM
Method: (§1) Compounds were tested in an assay medium containing 2% fetal bovine serum (FBS). Test compounds were added to cells prior to infection with virus at a multiplicity of infection (MOI) sufficient to induce visible cytopathic effect (CPE). […] Additionally, the EC90 was defined as the concentration required to achieve a 1 log10 reduction in viral titer. Dose-response curves depicting viral CPE (red line) and compound cytotoxicity (purple line) were generated to support these analyses.

[6] = tested on: Influenza B Victoria/Florida; assay: Influenza B CPE assay, MDCK; assay type: cell-based; conditions: Influenza B virus, albumin content N/A
Text: (§2) The antiviral assays were cell line based and consisted in transfecting each of the viruses tested in a compatible cell line. Upon infection and after drug treatment, viral survival and cell toxicity were reported from the readout of three different assays: cytopathic effect (CPE), viral yield reduction (VYR), or immunofluorescence (IF).

[7] = tested on: Influenza B Yamagata/Brisbane; assay: Influenza B CPE assay, MDCK; assay type: cell-based; conditions: Influenza B virus, albumin content N/A
Text: as §2

[8] = Cytotoxicity, neutral red, Vero E6; assay type: cell-based; conditions: African green monkey, Vero E6 cells (uninfected toxicity wells), with CPE assay, not converted for FBS
Method: Confluent or near-confluent cell culture monolayers of Vero E6 cells are prepared in 96-well disposable microplates the day before testing. Cells are maintained in MEM supplemented with 5% FBS. For antiviral assays the same medium is used but with FBS reduced to 2% and supplemented with 50-μg/ml gentamicin. Compounds are dissolved in DMSO, saline or the diluent requested by the submitter. […] The test compound is prepared at four serial log 10 concentrations, usually 0.1, 1.0, 10, and 100 μg/ml or μM (per sponsor preference). Lower concentrations are used when insufficient compound is supplied. Five microwells are used per dilution: three for infected cultures and two for uninfected toxicity cultures. Controls for the experiment consist of six microwells that are infected and not treated (virus controls) and six that are untreated and uninfected (cell controls) on every plate. A known active drug is tested in parallel as a positive control drug using the same method as is applied for test compounds. The positive control is tested with every test run.
Growth media is removed from the cells and the test compound is applied in 0.1 ml volume to wells at 2× concentration. Virus, normally at ˜60 CCID50 (50% cell culture infectious dose) in 0.1 ml volume is added to the wells designated for virus infection. […] The dye content in each well is quantified using a spectrophotometer at 540 nm wavelength. […]

[9] = Cytotoxicity, neutral red dye-uptake, HG23; assay type: cell-based; conditions: human, HG23 cells, with Norwalk Virus CPE assay, not converted
Method: as §1

[10] = Cytotoxicity, MTT assay in uninfected A549; assay type: cell-based; conditions: human, uninfected A549 cells, with Influenza A IF assay, not converted
A549-ACE2 cells = conditions: with CPE assays (SARS-CoV-2 WA1, Delta, OC43), not converted for FBS
Vero 76 cells = conditions: with CPE assays (SARS-CoV-2 WA1, Delta), not converted for FBS
MRC-5 cells = conditions: human, 6 days
in vitro [11] = conditions: human, CC50 (μM), A549-ACE2; with CPE assays (SARS-CoV-2 WA1, Delta, OC43); not converted for FBS
in vitro [12] = conditions: human
Influenza A H1N1/WSN/33 = assay: Influenza A virus IF assay, A549 (Method 7)
Method: A549 cells were infected with each viral strain at MOI 0.05. After 24 h post-infection with A/WSN/33 cells were fixed with 4% formaldehyde for 30 min. Cells were briefly washed with PBS, then permeabilized with 0.1% Triton X-100 in PBS for 15 minutes. Blocking occurred at room temperature for 1 hour with 0.5% BSA in PBS followed by incubation with the NP antibody (HT103, a gift from Thomas Moran) in 0.5% BSA in PBS for 1 hour at room temperature. Cells were washed with PBS 2× and incubated with a fluorescently-labeled secondary antibody, alexa-fluor-488 (Invitrogen), in 0.5% BSA in PBS with DAPI for 45 min at room temperature. Two washes with PBS were performed before imaging the cells on a Celigo Image Cytometer. Infected cells (488 nm) and total cells (DAPI) were quantified using the Celigo (Nexcelcom) imaging cytometer. Infectivity was measured by the accumulation of viral NP protein (fluorescence accumulation). Percent infection was quantified as ((Infected cells/Total cells)−Background)*100 and the DMSO control was then set to 100% infection for analysis. Data was fit using nonlinear regression and IC50s for each experiment were determined using GraphPad Prism version 8.0.2 (San Diego, CA). Cytotoxicity was also performed using the MTT assay (Roche), according to the manufacturer's instructions. […]

For `Cc1c(-c2ccc(O)cc2)n(Cc2ccc(OCCN3CCCCC3)cc2)c2ccc(O)cc12` [Pipendoxifene], the EC50 (SARS-CoV-2 USA-WA1/2020 [1]) was 0.52 µM, the EC50 (SARS-CoV-2 USA-WA1/2020 [2]) was 1.9 µM and the EC50 (SARS-CoV-2 USA-WA1/2020 [3]) was 0.54 µM. For the same molecule, the EC50 [4] was 2.4 µM, the EC50 [5] was 0.75 µM and the EC50 (CoV229E) was 0.11 to 0.52 µM. For the same molecule, the “percent effect printed in column EC50 (μM)” value (Norwalk Virus) was 31% @, the EC50 ([6]; read-out: Corrected EC50) was 4.1 µM and the EC50 ([6]; read-out: EC50) was 4.1 µM. It also gave an EC50 ([7]; read-out: Corrected EC50) of 6.7 µM, an EC50 ([7]; read-out: EC50) of 6.7 µM and a CC50 [8] of 3.2 µM. For the same molecule, the CC50 [9] was 18 µM, the CC50 at 24 h [10] was 13.7 µM and the CC50 (A549-ACE2 cells) was greater than 15 µM. It also gave a CC50 (Vero 76 cells) of 3.2 µM, a CC50 (MRC-5 cells) greater than 1 µM and a CC50 (in vitro [11]) greater than 10 µM. It also gave a CC50 (in vitro [12]) of 1 µM and an EC50 (Influenza A H1N1/WSN/33) of 7.49 µM.
